In assay [1] the target is GDP-bound KRAS protein (aa 1-169), containing both G12C and C118A amino acid substitutions (Homo sapiens, UniProt P01116, C118A/G12C). Nature of the assay: Coupled nucleotide exchange assay (SOS-mediated, AlphaScreen). Type of assay: biochemical. The note with it: for Coupled exchange IC50 (5 min): 5 min compound pre-incubation; for Coupled exchange IC50 (2 h): 2 h compound pre-incubation.

Assay [2] relates to Phosphorylation of ERK1/2 in MIA PaCa-2 cells. Nature of the assay: Phospho-ERK1/2 MSD assay in MIA PaCa-2 cells. It is filed as cell-based. The method, boiled down:
(§1)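 MSD electrochemiluminescence readout of phospho-ERK1/2 in whole-cell lysates, IC50 by 4-parameter logistic fit. Compound titrations were applied for 2 or 4 h at 37 °C, 5% CO2, followed by 10 ng/mL EGF stimulation for 10 min before lysis.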

The test system of assay [3] is Phosphorylation of ERK1/2 in A549 cells. Nature of the assay: Phospho-ERK1/2 MSD assay in A549 cells. The conditions noted are these: Homo sapiens. Type of assay: cell-based. The method, boiled down: as §1
Where [4] appears, read: Homo sapiens, MIA PaCa-2, 2 h, read-out: p-ERK IC50 (2 h; MIA PaCa-2), 2 h compound treatment.
The mark [5] stands for this setting: A549, 2 h, read-out: p-ERK IC50 (2 h; A549), 2 h compound treatment.
Setting [6] is: Homo sapiens, MIA PaCa-2, 4 h, read-out: p-ERK IC50 (4 h; MIA PaCa-2), 4 h compound treatment.
The mark [7] stands for this setting: A549, 4 h, read-out: p-ERK IC50 (4 h; A549), 4 h compound treatment.

Like-named read-outs stand apart in the source and are kept apart here. Some results are limits rather than exact numbers.

Chain of GDP-bound KRAS protein (aa 1-169), containing both G12C and C118A amino acid substitutions (P01116 1-169 isoform P01116-2 G12C/C118A): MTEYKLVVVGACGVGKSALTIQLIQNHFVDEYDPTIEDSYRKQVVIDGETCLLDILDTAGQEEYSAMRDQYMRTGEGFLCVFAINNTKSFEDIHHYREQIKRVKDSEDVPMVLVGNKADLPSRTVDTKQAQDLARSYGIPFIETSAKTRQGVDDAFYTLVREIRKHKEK

As to `C=CC(=O)N1CCN(c2nc(=O)n(-c3c(C)cc(N(C)C)cc3C(C)C)c3nc(-c4ccccc4F)c(Cl)cc23)[C@@H](C)C1` (single isomer, unassigned) [Example 55-16-2], the “Coupled exchange IC50 (5 min)” value in assay [1] is 0.039 | nda μM. Also, the IC50 was 0.123 µM in assay [2] (setting [4]) and not below 10 µM in assay [3] (setting [5]).

As to `C=CC(=O)N1CCN(c2nc(=O)n(-c3ccccc3C(C)C)c3nc(-c4ccccc4F)c(F)cc23)[C@@H](C)C1` [Example 57-7, 6-fluoro-7-(2-fluorophenyl)-4-((2S)-2-methyl-4-(2-propenoyl)-1-piperazinyl)-1-(2-(2-propanyl)phenyl)pyrido[2,3-d]pyrimidin-2(1H)-one], the “Coupled exchange IC50 (5 min)” value in assay [1] is 0.991 | nda μM. The figures for the half-maximal inhibitory concentration (IC50) in assay [2] (setting [4]) and in assay [3] (setting [5]) were 0.45 µM and not below 10 µM, respectively.

`C=CC(=O)N1CCN(c2nc(=O)n(-c3nccnc3C(C)(C)C)c3nc(-c4c(O)cccc4F)c(Cl)cc23)[C@@H](C)C1` (single isomer, unassigned) [Example 55-23-2]: the “Coupled exchange IC50 (5 min)” value in assay [1] is 0.062 | nda μM. Besides, the half-maximal inhibitory concentration (IC50) in assay [2] (setting [4]) was 0.077 µM; in assay [3] (setting [5]), not below 10 µM.

Consider `C=CC(=O)N1CCN(c2nc(=O)n(-c3c(CC)cccc3CC)c3nc(-c4ccccc4C4CC4)c(Cl)cc23)[C@@H](C)C1` [Example 54-22, 6-chloro-7-(2-cyclopropyl-phenyl)-1-(2,6-diethyl-phenyl)-4-((2S)-2-methyl-4-(2-propenoyl)-1-piperazinyl) pyrido[2,3-d]pyrimidin-2(1H)-one], for which the “Coupled exchange IC50 (5 min)” value in assay [1] amounted to 0.347 µM. In addition, the “Coupled exchange IC50 (2 h)” value in assay [1] is 0.097 µM. For the same compound, the IC50 in assay [2] (setting [4]) is 0.245 µM; in assay [3] (setting [5]) it was not below 33.3 µM.

With `C=CC(=O)N1CCN(c2nc(=O)n(-c3ccccc3C(C)C)c3nc(-c4cc(O)ccc4Br)c(Cl)cc23)[C@@H](C)C1` [Example 54-87, 7-(2-bromo-5-hydroxyphenyl)-6-chloro-4-((2S)-2-methyl-4-(2-propenoyl)-1-piperazinyl)-1-(2-(2-propanyl)phenyl)pyrido [2,3-d]pyrimidin-2(1H)-one], the “Coupled exchange IC50 (5 min)” value in assay [1] was 0.109 | nda μM. Further, the IC50 in assay [2] (setting [4]) is 0.066 µM; in assay [3] (setting [5]), not below 10 µM.

With `C=CC(=O)N1CCN(c2nc(=O)n(-c3ccccc3C(C)C)c3nc(-c4cc(OC)ccc4Br)c(Cl)cc23)[C@@H](C)C1` [Example 60-26, 7-(2-bromo-5-methoxyphenyl)-6-chloro-4-((2S)-2-methyl-4-(2-propenoyl)-1-piperazinyl)-1-(2-(2-propanyl)phenyl)pyrido[2,3-d]pyrimidin-2(1H)-one], the “Coupled exchange IC50 (5 min)” value in assay [1] is reported as 0.809 | nda μM. Besides, the results for the half-inhibitory concentration (IC50) in assay [2] (setting [4]) and in assay [3] (setting [5]) were 0.387 µM and not below 10 µM, respectively.

As to `C=CC(=O)N1CCN(c2nc(=O)n(-c3c(Cl)cccc3Cl)c3nc(-c4ccccc4F)c(Cl)cc23)[C@@H](C)C1` [Example 54-30, 6-chloro-1-(2,6-dichlorophenyl)-7-(2-fluorophenyl)-4-((2S)-2-methyl-4-(2-propenoyl)-1-piperazinyl) pyrido[2,3-d]pyrimidin-2(1H)-one], in assay [1], the “Coupled exchange IC50 (5 min)” value is listed as 0.824 | nda μM. Further, the IC50 in assay [2] (setting [4]) is 0.453 µM; in assay [3] (setting [5]), not below 10 µM.

Take `C=CC(=O)N1CCN(c2nc(=O)n(CC(C)(C)C)c3nc(-c4c(O)cccc4F)c(Cl)cc23)CC1` [Example 60-5, 6-chloro-1-(2,2-dimethylpropyl)-7-(2-fluoro-6-hydroxyphenyl)-4-(4-(2-propenoyl)-1-piperazinyl)pyrido[2,3-d]pyrimidin-2(1H)-one]: the “Coupled exchange IC50 (5 min)” value in assay [1] was 0.589 µM. Further, the “Coupled exchange IC50 (2 h)” value in assay [1] came to 0.102 µM. Also, the IC50 in assay [2] (setting [4]) came to 0.492 µM; in assay [2] (setting [6]), 0.447 µM; in assay [3] (setting [5]) it was 52.4 µM; in assay [3] (setting [7]) it was 60.5 µM.

In the case of `C=CC(=O)N1CCN(c2nc(=O)n(-c3ccccc3Cl)c3nc(-c4ccccc4F)c(Cl)cc23)[C@@H](C)C1` [Example 54-32, 6-chloro-1-(2-chlorophenyl)-7-(2-fluorophenyl)-4-((2S)-2-methyl-4-(2-propenoyl)-1-piperazinyl) pyrido[2,3-d]pyrimidin-2(1H)-one], the “Coupled exchange IC50 (5 min)” value in assay [1] is 1.963 | nda μM. In addition, the 50% inhibitory concentration (IC50) in assay [2] (setting [4]) is 0.796 µM; in assay [3] (setting [5]) it was not below 10 µM.

Consider `C=CC(=O)N1CCN(c2nc(=O)n(-c3c(C)ncnc3C)c3nc(-c4c(O)cccc4F)c(Cl)cc23)[C@@H](C)C1` [Example 54-48, 6-chloro-1-(4,6-dimethyl-5-pyrimidinyl)-7-(2-fluoro-6-hydroxyphenyl)-4-((2S)-2-methyl-4-(2-propenoyl)-1-piperazinyl) pyrido[2,3-d]pyrimidin-2(1H)-one], for which the “Coupled exchange IC50 (5 min)” value in assay [1] is given as 0.779 | nda μM. Moreover, the results for the IC50 in assay [2] (setting [4]) and in assay [3] (setting [5]) were 2.38 µM and not below 10 µM, respectively.

Take `C=CC(=O)N1CCN(c2nc(=O)n(-c3cccnc3C(C)C)c3nc(-c4ccccc4F)c(Cl)cc23)[C@@H](C)C1` [Example 54-9, 6-chloro-7-(2-fluorophenyl)-4-((2S)-2-methyl-4-(2-propenoyl)-1-piperazinyl)-1-(2-(2-propanyl)-3-pyridinyl) pyrido[2,3-d]pyrimidin-2(1H)-one]: the “Coupled exchange IC50 (5 min)” value in assay [1] is listed as 0.147 | nda μM. Further, the values for the IC50 in assay [2] (setting [4]) and in assay [3] (setting [5]) were 0.086 µM and not below 10 µM, respectively.

For the compound `C=CC(=O)N1CCN(c2nc(=O)n(-c3c(C4CC4)ncnc3C3CC3)c3nc(-c4ccccc4F)c(Cl)cc23)[C@@H](C)C1` [Example 60-11, 6-chloro-1-(4,6-dicyclopropyl-5-pyrimidinyl)-7-(2-fluorophenyl)-4-((2S)-2-methyl-4-(2-propenoyl)-1-piperazinyl)pyrido[2,3-d]pyrimidin-2(1H)-one], the “Coupled exchange IC50 (5 min)” value in assay [1] was 0.08 | nda μM. In addition, the figures for the IC50 in assay [2] (setting [4]) and in assay [3] (setting [5]) were 0.063 µM and not below 10 µM, respectively.

For `C=CC(=O)N1CCN(c2nc(=O)n(-c3ccccc3C(C)C)c3nc(N4CCC4)c(Cl)cc23)[C@@H](C)C1` [Example 69-2, 7-(1-azetidinyl)-6-chloro-4-((2S)-2-methyl-4-(2-propenoyl)-1-piperazinyl)-1-(2-(2-propanyl)phenyl)pyrido[2,3-d]pyrimidin-2(1H)-one], the “Coupled exchange IC50 (2 h)” value in assay [1] is given as “nda | 0.511 μM”. The concentration for half-maximal inhibition (IC50) was 1.31 µM in assay [2] (setting [4]) and not below 33.3 µM in assay [3] (setting [5]).

Turning to `C=CC(=O)N1CCN(c2nc(=O)n(-c3cccnc3C(C)C)c3nc(-c4ccccc4F)c(Cl)cc23)[C@@H](C)C1` (single isomer, unassigned) [Example 54-9-1], the “Coupled exchange IC50 (5 min)” value in assay [1] is 0.302 | nda μM. Besides, the half-maximal inhibitory concentration (IC50) is 0.076 µM in assay [2] (read-out: p-ERK IC50 (2 h; MIA PaCa-2), 2 h compound treatment) and not below 10 µM in assay [3] (setting [5]).

For the compound `C=CC(=O)N1CCN(c2nc(=O)n(-c3c(CC)cccc3CC)c3nc(-c4ccccc4F)c(Cl)cc23)[C@@H](C)C1` [Example 54-60, 6-ehloro-1-(2,6-diethylphenyl)-7-(2-fluorophenyl)-4-((2S)-2-methyl-4-(2-propenoyl)-1-piperazinyl) pyrido[2,3-d]pyrimidin-2(1H)-one], the “Coupled exchange IC50 (5 min)” value in assay [1] came out at 0.216 µM. Also, the “Coupled exchange IC50 (2 h)” value in assay [1] amounted to 0.093 µM. For the same compound, the concentration for half-maximal inhibition (IC50) is 0.145 µM in assay [2] (setting [4]), 0.091 µM in assay [2] (setting [6]), not below 10 µM in assay [3] (setting [5]) and not below 11.1 µM in assay [3] (setting [7]).

On to `C=CC(=O)N1CCN(c2nc(=O)n(-c3c(CC)cccc3CC)c3nc(-c4ccccc4C(C)C)c(Cl)cc23)[C@@H](C)C1` [Example 54-23, 6-chloro-1-(2,6-diethylphenyl)-4-((2S)-2-methyl-4-(2-propenoyl)-1-piperazinyl)-7-(2-(2-propanyl)phenyl)pyrido [2,3-d]pyrimidin-2(1H)-one], for which, in assay [1], the “Coupled exchange IC50 (5 min)” value is recorded as 0.103 | nda μM. The IC50 in assay [2] (setting [4]) is 0.122 µM; in assay [3] (setting [5]), not below 10 µM.

`C=CC(=O)N1CCN(c2nc(=O)n(-c3ccncc3C3CC3)c3cc(-c4c(O)cccc4F)c(Cl)cc23)[C@@H](C)C1` [Example 62-3, 6-chloro-1-(3 cyclopropyl-4-pyridinyl)-7-(2-fluoro-6-hydroxyphenyl)-4-((2S)-2-methyl-4-(2-propenoyl)-1-piperazinyl)-2(1H)-quinazolinone]: in assay [1], the “Coupled exchange IC50 (5 min)” value is listed as 0.147 | nda μM. For the same compound, the results for the IC50 in assay [2] (setting [4]) and in assay [3] (setting [5]) were 0.845 µM and not below 10 µM, respectively.

For `C=CC(=O)N1CCN(c2nc(=O)n(-c3ccccc3C3CCC3)c3nc(-c4c(O)cccc4F)c(Cl)cc23)[C@@H](C)C1` [Example 54-10, 6-chloro-1-(2-cyclobutylphenyl)-7-(2-flnoro-6-hydroxyphenyl)-4-((2S)-2-methyl-4-(2-propenoyl)-1-piperazinyl) pyrido[2,3-d]pyrimidin-2(1H)-one], in assay [1], the “Coupled exchange IC50 (5 min)” value was 0.185 | nda μM. The IC50 is 0.182 µM in assay [2] (setting [4]) and not below 10 µM in assay [3] (setting [5]).

With `C=CC(=O)N1CCN(c2nc(=O)n(CC(C)(C)C(F)(F)F)c3nc(-c4ccccc4F)c(Cl)cc23)[C@@H](C)C1` [Example 60-33, 6-chloro-7-(2-fluorophenyl)-4-((2S)-2-methyl-4-(2-propenoyl)-1-piperazinyl)-1-(3,3,3-trifluoro-2,2-dimethylpropyl)pyrido[2,3-d]pyrimidin-2(1H)-one], in assay [1], the “Coupled exchange IC50 (5 min)” value turned out to be 1.24 µM and the “Coupled exchange IC50 (2 h)” value is 0.139 µM. The half-maximal inhibitory concentration (IC50) in assay [2] (setting [4]) is 1.7 µM. Besides, in assay [3] (setting [5]), the IC50 was not below 100 µM.

By IC50 is commonly meant the midpoint of a concentration-inhibition curve.

(Values after patent US11090304B2 (Amgen Inc., priority 2018, dated 2021).)
